The values that follow come from ChEMBL document CHEMBL1201862, “PubChem BioAssay data set” (2004).

Active and inactive are the calls of the source.

The subject of one experiment is H9c2. The experiment is described as follows: cells. The settings on record: Rattus norvegicus, H9c2, Myocardium. It counts as functional, cell-based.
Experiment [1] in a line: cells. It counts as functional, cell-based.
Experiment [2] is described as follows: cells. It is filed as functional, cell-based. The source holds these as a separate data set.
Another experiment deals with Cytochrome P450 2D6 (Homo sapiens, UniProt P10635).
Cytochrome P450 2D6, sequence (P10635 whole entry): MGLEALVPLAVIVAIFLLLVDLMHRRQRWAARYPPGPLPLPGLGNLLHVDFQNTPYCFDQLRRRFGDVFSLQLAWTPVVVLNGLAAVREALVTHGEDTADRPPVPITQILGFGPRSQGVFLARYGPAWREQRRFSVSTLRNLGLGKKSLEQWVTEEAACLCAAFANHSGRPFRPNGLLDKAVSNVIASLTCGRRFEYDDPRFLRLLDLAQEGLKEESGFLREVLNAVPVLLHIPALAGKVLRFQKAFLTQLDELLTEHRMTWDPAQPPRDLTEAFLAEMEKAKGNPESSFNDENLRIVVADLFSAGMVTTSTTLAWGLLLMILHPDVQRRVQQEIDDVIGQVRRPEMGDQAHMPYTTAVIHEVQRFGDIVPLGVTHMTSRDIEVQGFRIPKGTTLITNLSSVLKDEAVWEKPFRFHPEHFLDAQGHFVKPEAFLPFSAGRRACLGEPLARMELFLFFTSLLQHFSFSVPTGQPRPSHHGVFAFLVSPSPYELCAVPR
The target in another experiment is T1, Protein RecA (Mycobacterium tuberculosis, UniProt P9WHJ3).
T1 sequence (P9WHJ3 whole entry): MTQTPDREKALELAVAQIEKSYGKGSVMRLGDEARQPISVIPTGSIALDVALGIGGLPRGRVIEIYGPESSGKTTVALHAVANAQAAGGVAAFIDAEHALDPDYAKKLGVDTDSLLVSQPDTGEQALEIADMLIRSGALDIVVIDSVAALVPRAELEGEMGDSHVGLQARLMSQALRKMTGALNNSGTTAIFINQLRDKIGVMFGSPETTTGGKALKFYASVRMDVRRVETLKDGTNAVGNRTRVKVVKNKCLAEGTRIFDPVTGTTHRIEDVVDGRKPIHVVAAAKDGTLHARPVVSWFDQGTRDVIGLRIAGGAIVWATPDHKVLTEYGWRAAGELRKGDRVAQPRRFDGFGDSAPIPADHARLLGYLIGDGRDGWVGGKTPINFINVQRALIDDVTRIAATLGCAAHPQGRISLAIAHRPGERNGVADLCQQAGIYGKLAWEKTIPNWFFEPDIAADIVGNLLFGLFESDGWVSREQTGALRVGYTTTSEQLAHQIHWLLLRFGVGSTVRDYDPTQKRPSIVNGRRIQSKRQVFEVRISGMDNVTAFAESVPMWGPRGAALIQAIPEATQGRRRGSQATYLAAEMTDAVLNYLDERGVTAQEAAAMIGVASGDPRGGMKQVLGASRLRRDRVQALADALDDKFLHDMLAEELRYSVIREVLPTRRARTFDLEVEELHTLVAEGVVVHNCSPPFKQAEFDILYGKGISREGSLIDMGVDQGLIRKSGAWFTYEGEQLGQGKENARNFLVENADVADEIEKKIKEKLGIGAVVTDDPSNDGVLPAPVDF
As to the kind of experiment: Fluorescence Cell-Free Homogeneous Dose Retest to Identify Inhibitors of RecA-Intein Splicing Activity. [Related pubchem assays (depositor defined):AID2097, AID2223, AID489010, AID492950]. It counts as functional.

The next experiment addresses Cytochrome P450 3A4 (Homo sapiens, UniProt P08684).
Experiment [3] deals with T2, Replicative DNA helicase DnaB (Mycobacterium tuberculosis, UniProt P9WMR3).
T2 sequence (P9WMR3 whole entry): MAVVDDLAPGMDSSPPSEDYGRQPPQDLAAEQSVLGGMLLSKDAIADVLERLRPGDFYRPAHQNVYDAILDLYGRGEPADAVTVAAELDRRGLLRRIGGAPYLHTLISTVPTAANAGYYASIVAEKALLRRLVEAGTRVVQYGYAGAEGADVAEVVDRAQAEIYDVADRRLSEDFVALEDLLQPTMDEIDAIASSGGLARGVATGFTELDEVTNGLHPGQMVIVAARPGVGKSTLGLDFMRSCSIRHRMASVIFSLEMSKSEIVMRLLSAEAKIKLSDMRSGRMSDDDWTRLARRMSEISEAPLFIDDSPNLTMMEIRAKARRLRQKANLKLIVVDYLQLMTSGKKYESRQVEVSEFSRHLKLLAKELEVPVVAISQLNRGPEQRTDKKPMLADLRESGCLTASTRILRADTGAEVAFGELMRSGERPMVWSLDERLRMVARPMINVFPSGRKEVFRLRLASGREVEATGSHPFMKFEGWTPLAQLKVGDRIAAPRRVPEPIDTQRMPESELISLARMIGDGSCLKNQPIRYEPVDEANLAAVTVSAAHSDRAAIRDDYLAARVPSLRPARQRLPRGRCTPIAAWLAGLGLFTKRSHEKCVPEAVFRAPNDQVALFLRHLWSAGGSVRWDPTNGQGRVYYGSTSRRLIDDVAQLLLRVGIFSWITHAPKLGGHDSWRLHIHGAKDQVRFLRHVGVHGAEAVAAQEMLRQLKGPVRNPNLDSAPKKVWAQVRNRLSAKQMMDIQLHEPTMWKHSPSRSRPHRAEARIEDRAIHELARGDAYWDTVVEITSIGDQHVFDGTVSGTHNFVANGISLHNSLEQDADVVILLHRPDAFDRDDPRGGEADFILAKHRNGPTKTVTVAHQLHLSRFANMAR
As to the kind of experiment: DnaB intein splicing inhibitors, dose response, biochemical, cell-free fluorescence (AID 449749). It counts as functional.

For a further experiment, the system named is Streptococcus. The experiment is described as follows: GAS UMAA2166 growth inhibition – luminescence, BacTiterGlo, counter-screen for streptokinase expression inhibitor project, dose response (AID 1915).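 Further: potency for reduction of bacterial viability or growth.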 It is filed as functional, organism-based. A general note: Counterscreens check selectivity or assay interference.
The target in experiment [4] is T3, Corticotropin-releasing factor receptor 2/Corticotropin-releasing factor-binding protein (Homo sapiens, UniProt P24387+Q13324).
T3 sequence (Q13324 whole entry): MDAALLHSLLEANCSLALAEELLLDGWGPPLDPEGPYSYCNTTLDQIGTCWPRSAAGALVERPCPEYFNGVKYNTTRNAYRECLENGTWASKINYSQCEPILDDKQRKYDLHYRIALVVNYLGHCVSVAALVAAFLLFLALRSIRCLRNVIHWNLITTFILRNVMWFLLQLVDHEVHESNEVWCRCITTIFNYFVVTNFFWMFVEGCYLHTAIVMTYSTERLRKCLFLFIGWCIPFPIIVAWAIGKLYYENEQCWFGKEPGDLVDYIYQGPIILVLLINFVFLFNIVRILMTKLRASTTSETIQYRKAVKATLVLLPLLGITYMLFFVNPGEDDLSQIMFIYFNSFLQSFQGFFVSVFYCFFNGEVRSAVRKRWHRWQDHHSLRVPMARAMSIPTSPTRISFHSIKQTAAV
T3 sequence (P24387 whole entry): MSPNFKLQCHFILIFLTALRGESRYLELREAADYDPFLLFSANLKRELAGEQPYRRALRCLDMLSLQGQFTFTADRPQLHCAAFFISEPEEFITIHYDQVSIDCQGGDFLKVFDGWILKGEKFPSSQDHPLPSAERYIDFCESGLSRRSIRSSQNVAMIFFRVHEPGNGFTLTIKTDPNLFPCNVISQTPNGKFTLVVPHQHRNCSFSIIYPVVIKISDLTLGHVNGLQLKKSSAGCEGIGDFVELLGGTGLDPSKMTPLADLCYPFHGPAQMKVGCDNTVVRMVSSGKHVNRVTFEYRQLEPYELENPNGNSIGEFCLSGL
As to the kind of experiment: Dose Response confirmation of uHTS hits for small molecule antagonists of the CRF-binding protein and CRF-R2 receptor complex. It is filed as functional. The settings on record: read-out: IC50_Mean.

In experiment [5] the target is T3, Corticotropin-releasing factor receptor 2/Corticotropin-releasing factor-binding protein. As to the kind of experiment: activators of CRF receptor 2 with binding protein – uHTS hits, confirmation (AID 602473). It counts as functional. To be noted: read-out: EC50_Mean.
In experiment [6] the test system is Streptococcus sp. 'group A'. As to the kind of experiment: Streptococcus pyogenes SK(-)GAS viability under kanamycin – luminescence, BacTiterGlo, confirmation, counter-screen for streptokinase expression inhibitor project, dose response (AID 1900). It counts as functional, organism-based.
A further experiment relates to Vero. As to the kind of experiment: cells. It is filed as functional. To be noted: Chlorocebus sabaeus.
In the next experiment the target is T4, Streptokinase A (Streptococcus pyogenes serotype M1, UniProt P10520).
T4 sequence (P10520 whole entry): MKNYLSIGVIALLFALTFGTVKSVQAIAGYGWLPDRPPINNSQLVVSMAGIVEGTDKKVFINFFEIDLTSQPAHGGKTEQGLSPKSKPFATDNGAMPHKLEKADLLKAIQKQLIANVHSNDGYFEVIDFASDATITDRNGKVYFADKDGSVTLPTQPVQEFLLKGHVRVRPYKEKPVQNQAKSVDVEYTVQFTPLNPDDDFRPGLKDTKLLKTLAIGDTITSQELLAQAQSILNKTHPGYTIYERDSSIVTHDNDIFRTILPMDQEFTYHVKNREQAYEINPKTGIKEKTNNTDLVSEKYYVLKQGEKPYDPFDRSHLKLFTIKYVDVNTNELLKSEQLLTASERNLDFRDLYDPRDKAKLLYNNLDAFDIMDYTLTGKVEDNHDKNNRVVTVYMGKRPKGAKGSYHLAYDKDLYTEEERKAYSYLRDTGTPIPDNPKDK
As to the kind of experiment: viability-normalized secreted streptokinase activity reduction – plasminogen activation absorbance, OD405, dose response (AID 1914).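 Further: secreted streptokinase activity via plasminogen activation per viability signal from cell pellet.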 It is filed as functional, Streptococcus pyogenes M1 GAS.

In experiment [7] the target is T5, Ubiquitin-conjugating enzyme E2 N (Homo sapiens, UniProt P61088).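 Further: Dose-response confirmation in a TR-FRET assay detecting UBC13-driven polyubiquitin chain formation, inhibition measured.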
T5 sequence (P61088 whole entry): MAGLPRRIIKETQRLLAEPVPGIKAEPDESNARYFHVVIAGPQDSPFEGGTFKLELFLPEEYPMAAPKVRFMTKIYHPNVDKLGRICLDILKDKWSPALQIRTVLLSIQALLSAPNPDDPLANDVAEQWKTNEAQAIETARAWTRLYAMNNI
It counts as functional.

The next experiment concerns INS1. The experiment is described as follows: INS-1E survival protection against cytokine death – cell-based, luminescence, retest, dose response (AID 449756).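 Further: cell death triggered by IL-1 beta plus TNF-alpha plus IFN-gamma mixture; protective hits raise ATP signal compared with cytokine alone wells.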 The settings on record: Rattus norvegicus. It is filed as functional.
The nature of experiment [8]: microbe, parasite or virus in culture. It counts as functional. The settings on record: Mycobacterium tuberculosis.

Cytochrome P450 3A4, sequence (P08684 whole entry): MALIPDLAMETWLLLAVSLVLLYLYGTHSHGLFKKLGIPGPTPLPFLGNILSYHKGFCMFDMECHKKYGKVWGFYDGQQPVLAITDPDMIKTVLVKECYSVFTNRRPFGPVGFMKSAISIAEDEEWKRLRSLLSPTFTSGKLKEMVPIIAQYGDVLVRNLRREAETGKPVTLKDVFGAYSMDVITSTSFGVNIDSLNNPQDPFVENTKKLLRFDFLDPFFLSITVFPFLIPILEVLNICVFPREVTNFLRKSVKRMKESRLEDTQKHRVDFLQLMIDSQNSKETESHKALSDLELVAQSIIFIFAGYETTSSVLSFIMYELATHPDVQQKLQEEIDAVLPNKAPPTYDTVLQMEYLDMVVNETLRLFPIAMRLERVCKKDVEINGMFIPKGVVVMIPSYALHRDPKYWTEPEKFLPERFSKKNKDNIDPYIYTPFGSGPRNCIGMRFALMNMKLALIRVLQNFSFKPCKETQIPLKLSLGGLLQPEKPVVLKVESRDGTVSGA

As to `CN1CCN(Cc2nc(O)c3ccccc3n2)CC1`, the IC50 with H9c2 is 24 µM (active). On the same count and under the same terms, the result for `O=C(CSc1nnc(Cc2cccs2)n1CCc1ccccc1)N1CCCc2ccccc21` reads > 79 µM (inactive); that for `NC(=O)c1nsc(C(=O)N(CCc2ccccc2)C(C(=O)NC2CCCC2)c2ccco2)c1N` (centres undefined), > 79 µM (inactive). Turning to `COc1ccc(NC(=O)CNC(=O)Cc2cccc3ccccc23)c(OC)c1`, the EC50 in “cells [1]” and in the experiment “cells [2]” was > 350 µM (not active) each time. For `CC(=O)N1CCC2(CCCN(c3ncccn3)C2)CC1`, the AC50 on Cytochrome P450 2D6 was 31.6 µM (inconclusive).

With `COc1cc(SC)ccc1C(=O)Nc1ccc(C)cc1C`, the EC50 in “cells [1]” was > 350 µM (not active); in “cells [2]” it was 5.81 µM (active). With `Cc1ccc(-n2nc(C)c3c2OC(N)=C(C#N)C3c2ccco2)cc1` (centres undefined), the EC50 at Protein RecA is 6.22 µM (inconclusive). Also, the figures for the AC50 (at Cytochrome P450 3A4; in [3]) were 17.8 µM (inconclusive) and 35.1 µM (inconclusive), respectively. `CC(C)(C)NC(=O)COC(=O)c1ccc(Cl)nc1`: the EC50 in the experiment “cells [1]” and in “cells [2]” was > 350 µM (not active) throughout. For `N#Cc1ccc(CN2CCC3(CC2)CCN(C(=O)c2cccc(F)c2)CC3)cc1`, the AC50 on Cytochrome P450 2D6 is 12.6 µM (inconclusive).

For the molecule `Cc1cc(C)cc(N(CC(=O)NCCSc2ccccn2)S(=O)(=O)c2ccccc2)c1`, at Cytochrome P450 2D6, the AC50 is 11.2 µM (inconclusive). Consider `COc1ccc(NC(=S)N2CCN(C(=O)c3ccccc3)CC2)cc1`, for which the EC50 in the experiment “cells [1]” and in the experiment “cells [2]” was > 350 µM (not active) each time. Turning to `Cc1ccc(N=Nc2ccc(O)c(P(=O)(c3ccccc3)c3ccccc3)c2)cc1`, the EC50 with Streptococcus was 110 µM (active); in experiment [5], > 53 µM (inactive); in experiment [6] it was 3.58 µM (active); at Streptokinase A, > 150 µM (not active). The IC50 in [4] is > 47.1 µM (inactive). The CC50 with Vero was > 25 µM (active).

For `O=C(CN1C(=O)S/C(=C\C=C\c2ccccc2)C1=O)Nc1ccc(C(=O)O)cc1`, on Protein RecA, the EC50 was > 380 µM (inactive). In addition, the AC50 in experiment [3] was 177 µM (active). Turning to `CCOc1ccc(N(C(=O)c2snc(C(N)=O)c2N)C(C(=O)NC2CCCC2)C(C)C)cc1` (centres undefined), the IC50 in [7] is > 20 µM (inactive). Take `CCCNC(=O)c1c(N)n(-c2cccc(OC)c2)c2nc3ccccc3nc12`: the AC50 in the experiment with INS1 is 36.8 µM (active). In addition, in the experiment with H9c2, the IC50 was 28.5 µM (active). Regarding `COc1cc2c(cc1OC)C1(Nc3c-2c(-c2ccccc2)nn3-c2ccccc2)C(=O)Nc2ccccc21` (centres undefined), in [8], the CC50 was 10.4 µM (active).

In the case of `Cn1ncc(Cl)c1C(=O)Nc1nc2ccc(Cl)cc2s1`, the EC50 is > 350 µM (not active) in “cells [1]” and 0.85 µM (active) in the experiment “cells [2]”. Take `COc1cc(C(c2c(C)n[nH]c2O)c2c(C)n[nH]c2O)cc(Cl)c1O`: the EC50 on Protein RecA is 0.453 µM (active). In experiment [3], the AC50 is 2.6 µM (active).

Regarding `C=CCn1c(Cc2cccs2)nnc1SCC(=O)Nc1ccc(C(=O)OCC)cc1`, the CC50 in [8] was > 40 µM (active). In the case of `O=C(CCc1nc(O)c2ccccc2n1)N1CCN(c2ccc(F)cc2)CC1`, the IC50 with H9c2 is > 79 µM (inactive). Still for that read-out and setting: the result for `Cc1cc(C)cc(C(=O)Nc2ccc(NC(=O)c3cccs3)cc2)c1` reads > 79 µM (inactive). With `O=C(C(=O)N1CCOCC1)c1cn(Cc2ccccc2)c2ccccc12`, the IC50 in [7] was > 20 µM (inactive). In the case of `Cc1nc2ccccc2c2c1C(=O)N(C)C2=O`, the EC50 at Protein RecA is 0.794 µM (active). For the same molecule, the AC50 in [3] is 4.71 µM (active).

As to `CC(C)C1Nc2ccc(C(=O)N3CCN(c4ccccn4)CC3)cc2NC1=O` (centres undefined), the IC50 in the experiment with H9c2 was 21.2 µM (active).

As to `O=C(N/N=C/c1ccc2c(c1)OCO2)c1ccc(NC(=O)c2ccccc2Cl)cc1`, the IC50 in the experiment on H9c2 was 9.19 µM (active). Same read-out and setting: as for `Oc1c(Cl)cc(Cl)cc1/C=N/c1ccc(N2CCOCC2)cc1`, the figure is > 79 µM (inactive). For the molecule `CCOC(=O)C1=C(c2ccccc2)N=c2s/c(=C\c3ccco3)c(=O)n2C1c1cccs1` (centres undefined), the AC50 was 22.4 µM (inconclusive) at Cytochrome P450 3A4 and 15.8 µM (inconclusive) at Cytochrome P450 2D6.

As a reminder, the AC50 is the midpoint of the concentration-response curve, whichever way the signal moves.
